Results from PubChem BioAssay AID328 (DTP/NCI, 2004).
Several values for one entry are separate records, joined by “and”; a condition that tells them apart may be missing. Identical values can stand only once. Inconclusive results and toxic doses are left out.

Test system: BDF1 mice, P388 leukemia ip, median survival T/C
Test: NCI In Vivo Anticancer Drug Screen. Data for tumor model P388 Leukemia (intraperitoneal) in B6D2F1 (BDF1) mice
Settings: endpoint: median survival time, higher = longer survival
Method in brief: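 Reported as T/C, where T is the survival measurement in dosed animals and C the same measurement in vehicle controls.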

[1] = dose: 100.0 mg/kg/injection, schedule: Q04DX003 (ip), vehicle: saline
[2] = dose: 100.0 mg/kg/injection, schedule: Q04DX003 (ip), vehicle: Klucel (hydroxypropylcellulose) (HPC)
[3] = dose: 200.0 mg/kg/injection, schedule: Q04DX003 (ip), vehicle: Klucel (hydroxypropylcellulose) (HPC)
[4] = dose: 400.0 mg/kg/injection, schedule: Q04DX003 (ip), vehicle: Klucel (hydroxypropylcellulose) (HPC)
[5] = dose: 25.0 mg/kg/injection, schedule: Q01DX009 (ip), vehicle: saline with Tween-80
[6] = dose: 50.0 mg/kg/injection, schedule: Q01DX009 (ip), vehicle: saline with Tween-80
[7] = dose: 100.0 mg/kg/injection, schedule: Q01DX009 (ip), vehicle: saline with Tween-80
[8] = dose: 100.0 mg/kg/injection, schedule: Q04DX003 (ip), vehicle: saline with Tween-80
[9] = dose: 200.0 mg/kg/injection, schedule: Q01DX009 (ip), vehicle: saline with Tween-80
[10] = dose: 200.0 mg/kg/injection, schedule: Q04DX003 (ip), vehicle: saline with Tween-80
[11] = dose: 400.0 mg/kg/injection, schedule: Q01DX009 (ip), vehicle: saline with Tween-80
[12] = dose: 400.0 mg/kg/injection, schedule: Q04DX003 (ip), vehicle: saline with Tween-80
[13] = dose: 20.0 mg/kg/injection, schedule: Q01DX009 (ip), vehicle: saline with Tween-80
[14] = dose: 100.0 mg/kg/injection, schedule: Q01DX001 (ip), vehicle: saline with Tween-80
[15] = dose: 200.0 mg/kg/injection, schedule: Q04DX003 (ip), vehicle: saline
[16] = dose: 100.0 mg/kg/injection, schedule: Q01DX009 (ip), vehicle: Klucel (hydroxypropylcellulose) (HPC)
[17] = dose: 200.0 mg/kg/injection, schedule: Q01DX009 (ip), vehicle: Klucel (hydroxypropylcellulose) (HPC)
[18] = dose: 400.0 mg/kg/injection, schedule: Q01DX009 (ip), vehicle: Klucel (hydroxypropylcellulose) (HPC)

Compound: Cc1cc(=O)[nH]c(N/N=C/c2ccc(O)cc2)n1
- T/C (dose: 75.0 mg/kg/injection, schedule: Q01DX009 (ip), vehicle: Klucel (hydroxypropylcellulose) (HPC)): 104 % of control
- T/C (dose: 150.0 mg/kg/injection, schedule: Q01DX009 (ip), vehicle: Klucel (hydroxypropylcellulose) (HPC)): 109 % of control
- T/C (dose: 300.0 mg/kg/injection, schedule: Q01DX009 (ip), vehicle: Klucel (hydroxypropylcellulose) (HPC)): 95 % of control

Compound: CCCCCCCCC(=O)c1c(OC)oc(/C=N/O)cc1=O
- T/C (dose: 1.56 mg/kg/injection, schedule: Q01DX009 (ip), vehicle: Klucel (hydroxypropylcellulose) (HPC)): 94 % of control
- T/C (dose: 3.13 mg/kg/injection, schedule: Q01DX009 (ip), vehicle: Klucel (hydroxypropylcellulose) (HPC)): 107 % of control
- T/C (dose: 6.25 mg/kg/injection, schedule: Q01DX009 (ip), vehicle: Klucel (hydroxypropylcellulose) (HPC)): 97 % of control

Compound: Cc1c(N)ncc2ccccc12
- T/C (dose: 12.5 mg/kg/injection, schedule: Q04DX003 (ip), vehicle: saline): 115 % of control
- T/C (dose: 25.0 mg/kg/injection, schedule: Q04DX003 (ip), vehicle: saline): 108 % of control
- T/C (dose: 50.0 mg/kg/injection, schedule: Q04DX003 (ip), vehicle: saline): 99 % of control
- T/C [1]: 118 % of control

Compound: O=[N+]([O-])c1cccc(C=Nc2cccc(C(F)(F)F)c2)c1
- T/C (dose: 3.0 mg/kg/injection, schedule: Q01DX009 (ip), vehicle: Klucel (hydroxypropylcellulose) (HPC)): 95 % of control
- T/C (dose: 6.0 mg/kg/injection, schedule: Q01DX009 (ip), vehicle: Klucel (hydroxypropylcellulose) (HPC)): 95 % of control
- T/C (dose: 12.0 mg/kg/injection, schedule: Q01DX009 (ip), vehicle: Klucel (hydroxypropylcellulose) (HPC)): 100 % of control
- T/C [2]: 104 % of control
- T/C [3]: 95 % of control
- T/C [4]: 95 % of control

Compound: CC(=O)Oc1cc2c(cc1OC(C)=O)C(=O)CCC=C2
- T/C (dose: 12.5 mg/kg/injection, schedule: Q01DX009 (ip), vehicle: saline with Tween-80): 114 % of control
- T/C [5]: 109 % of control
- T/C [6]: 104 % of control

Compound: OC/C(=N/Nc1ccc2ccccc2n1)c1ccccc1
- T/C [6]: 114 % of control
- T/C [7]: 117 % of control
- T/C [8]: 94 % of control
- T/C [9]: 115 % of control
- T/C [10]: 102 % of control
- T/C [11]: 88 % of control
- T/C [12]: 101 % of control

Compound: CCOC(=O)CCCN(c1[nH]c(C)c(C)c1C#N)S(=O)(=O)c1ccc(C)cc1
- T/C [5]: 109 % of control
- T/C [6]: 100 % of control
- T/C [7]: 113 % of control
- T/C [9]: 104 % of control
- T/C [10]: 87 % of control
- T/C [12]: 95 % of control

Compound: CN1CCN(c2nn3nnnc3c3ccccc23)CC1
- T/C [13]: 89 % of control
- T/C (dose: 40.0 mg/kg/injection, schedule: Q01DX009 (ip), vehicle: saline with Tween-80): 94 % of control
- T/C (dose: 80.0 mg/kg/injection, schedule: Q01DX009 (ip), vehicle: saline with Tween-80): 93 % of control

Compound: O=c1ccc2cc(Cl)ccc2[nH]1
- T/C (dose: 50.0 mg/kg/injection, schedule: Q01DX001 (ip), vehicle: saline with Tween-80): 105 % of control
- T/C [14]: 103 % of control

Compound: CCCCn1c2nc(=O)[nH]c(=O)c-2[n+]([O-])c2ccccc21
- T/C [14]: 108 % of control

Compound: O=C1CCN2C=CC=CC2=N1
- T/C [1]: 104 % of control
- T/C [15]: 100 % of control
- T/C (dose: 400.0 mg/kg/injection, schedule: Q04DX003 (ip), vehicle: saline): 95 % of control

Compound: Cc1ccc(C2(C(=O)O)CC2)cc1
- T/C [8]: 100 % of control
- T/C [10]: 104 % of control
- T/C [12]: 108 % of control

Compound: COc1cc(-c2cc(=O)c3c(OC)c(OC)c(OC)c(OC)c3o2)cc2c1OCO2
- T/C (dose: 100.0 mg/kg/injection, schedule: Q04DX002 (ip), vehicle: Klucel (hydroxypropylcellulose) (HPC)): 97 % of control
- T/C (dose: 200.0 mg/kg/injection, schedule: Q04DX002 (ip), vehicle: Klucel (hydroxypropylcellulose) (HPC)): 103 % of control
- T/C (dose: 400.0 mg/kg/injection, schedule: Q04DX002 (ip), vehicle: Klucel (hydroxypropylcellulose) (HPC)): 97 % of control

Compound: CC(=O)[C@H]1[C@H](C)C[C@H]2[C@@H]3CCC4=CC(=O)CC[C@]4(C)[C@@]3(F)[C@@H](O)C[C@@]21C
- T/C [16]: 105 % of control
- T/C (dose: 100.0 mg/kg/injection, schedule: Q04DX003 (ip), vehicle: alcohol): 120 % of control
- T/C (dose: 132.0 mg/kg/injection, schedule: Q04DX003 (ip), vehicle: saline): 115 % of control
- T/C [17]: 120 % of control
- T/C [15]: 104 % of control and 120 % of control
- T/C (dose: 300.0 mg/kg/injection, schedule: Q04DX003 (ip), vehicle: saline): 110 % of control and 113 % of control
- T/C [18]: 120 % of control
- T/C (dose: 400.0 mg/kg/injection, schedule: Q04DX003 (ip), vehicle: alcohol): 105 % of control

Compound: CC(=N/NC(N)=S)/C(C)=N/NC(N)=S
- T/C [16]: 100 % of control
- T/C [17]: 100 % of control
- T/C [18]: 100 % of control

Compound: CC[Se](CC)CC.CC[Se](CC)CC.C[CH2][Ge]([CH2]C)[O][Ge]([CH2]C)[CH2]C
- T/C [7]: 107 % of control

Compound: COS(C)(=O)=O
- T/C (dose: 12.5 mg/kg/injection, schedule: Q01DX010 (ip), vehicle: saline): 100 % of control
- T/C (dose: 25.0 mg/kg/injection, schedule: Q01DX010 (ip), vehicle: saline): 104 % of control
- T/C (dose: 50.0 mg/kg/injection, schedule: Q01DX010 (ip), vehicle: saline): 108 % of control

Compound: O=C(O)c1ccccc1C(=O)NNC(=O)c1ccccc1C(=O)O
- T/C [7]: 100 % of control
- T/C [8]: 90 % of control
- T/C [9]: 95 % of control
- T/C [10]: 113 % of control
- T/C [11]: 90 % of control
- T/C [12]: 109 % of control

Compound: COc1ccc(CC2c3cc(OC)c(OC)cc3CCN2C(=O)OCc2ccccc2)cc1OC (stereo unspecified)
- T/C (dose: 50.0 mg/kg/injection, schedule: Q01DX005 (ip), vehicle: saline with Tween-80): 91 % of control
- T/C (dose: 100.0 mg/kg/injection, schedule: Q01DX005 (ip), vehicle: saline with Tween-80): 93 % of control
- T/C (dose: 200.0 mg/kg/injection, schedule: Q01DX005 (ip), vehicle: saline with Tween-80): 92 % of control

Compound: COc1cc(NCc2ccc3nc(N)nc(N)c3c2C)cc(OC)c1OC
- T/C (dose: 5.0 mg/kg/injection, schedule: Q01DX009 (ip), vehicle: sodium bicarbonate): 154 % of control
- T/C (dose: 10.0 mg/kg/injection, schedule: Q01DX009 (ip), vehicle: sodium bicarbonate): 177 % of control
- T/C (dose: 12.5 mg/kg/injection, schedule: Q01DX009 (oral), vehicle: sodium bicarbonate): 113 % of control
- T/C [13]: 255 % of control
- T/C (dose: 20.0 mg/kg/injection, schedule: Q01DX009 (ip), vehicle: sodium bicarbonate): 227 % of control
- T/C (dose: 30.0 mg/kg/injection, schedule: Q01DX009 (ip), vehicle: saline with Tween-80): 398 % of control
- T/C (dose: 40.0 mg/kg/injection, schedule: Q01DX009 (ip), vehicle: sodium bicarbonate): 243 % of control
- T/C (dose: 44.0 mg/kg/injection, schedule: Q01DX009 (ip), vehicle: saline with Tween-80): 97 % of control
- T/C (dose: 50.0 mg/kg/injection, schedule: Q01DX009 (oral), vehicle: sodium bicarbonate): 170 % of control
- T/C (dose: 67.0 mg/kg/injection, schedule: Q01DX009 (ip), vehicle: saline with Tween-80): 95 % of control
- T/C (dose: 100.0 mg/kg/injection, schedule: Q01DX009 (oral), vehicle: sodium bicarbonate): 89 % of control

Compound: C(=Nc1ccc(-c2ccccc2)cc1)c1ccccc1
- T/C [8]: 100 % of control
- T/C [10]: 100 % of control
- T/C [12]: 100 % of control

Compound: CC1=CC(=O)c2c(O)ccc(O)c2C1=O
- T/C (dose: 1.25 mg/kg/injection, schedule: Q01DX009 (ip), vehicle: alcohol): 114 % of control
- T/C (dose: 2.5 mg/kg/injection, schedule: Q01DX009 (ip), vehicle: alcohol): 122 % of control

Compound: Fc1c(Cl)c(Cl)c(Cl)c(Cl)c1Cl
- T/C (dose: 44.0 mg/kg/injection, schedule: Q01DX009 (ip), vehicle: other): 104 % of control
- T/C (dose: 66.0 mg/kg/injection, schedule: Q01DX009 (ip), vehicle: other): 100 % of control
- T/C (dose: 100.0 mg/kg/injection, schedule: Q01DX009 (ip), vehicle: other): 95 % of control
- T/C [2]: 100 % of control
- T/C (dose: 150.0 mg/kg/injection, schedule: Q01DX009 (ip), vehicle: other): 91 % of control
- T/C [9]: 105 % of control
- T/C [3]: 90 % of control
- T/C [11]: 90 % of control
- T/C [4]: 100 % of control
